Laboratory results: patent publication US20090221056A1, “Pathogen-Detecting Cell Preservation Systems” (priority 2005, published 2009)
“Also recorded” adds a separate entry of the source. The star is where a group is joined. Cbz = O=C(OCc1ccccc1)*; CH2F = FC*

Legend:
CANARY cells = assay: Toxicity of chemical additives to CANARY cells; settings: at 50 μM
CANARY B cells = assay: Viability of CANARY cells after storage with chemical additives; assay type: cell-based; settings: storage at room temperature (1-3 weeks), compared to cells without additive
[1] = test system: CANARY B cells (expressing a receptor specific for Yersinia pestis); assay type: cell-based

| Substance | toxicity of additive (CANARY cells) | viability of cells stored at room temperature (CANARY B cells) | viability of cells stored at room temperature (CANARY B cells; listed as Tunicamycin) | activity (antigen detection) of cells stored at room temperature [1] | beneficial effect on stored cells (viability and/or activity) [1] | benefit of treatment to stored cells [1] |
| --- | --- | --- | --- | --- | --- | --- |
| Cbz-LEHD-CH2F | toxic | – | – | – | – | – |
| Cbz-WEHD-CH2F | toxic | – | – | – | – | – |
| tunicamycin | – | improved both viability and activity | increases both cell viability and activity | increases both cell viability and activity; also recorded: retained detection sensitivity for Yersinia pestis; also recorded: improved both viability and activity | beneficial effects | detrimental |
